From the supplement of paper PMC7840683
Where a name gives a salt, the structure may show the parent alone. ± gives the standard deviation of the averaged measurements.

Tested on: HepaRG
Test: LDH release cytotoxicity, % of total lysis control; higher = more cytotoxic
Settings: 48 h
In short: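 HepaRG cells from a single lot were plated on collagen I-coated 96-well plates and treated in duplicate for 48 h with eight-point half-log series of test chemicals, starting at 100 µM, in serum-free induction medium containing 0.5% DMSO. Total lysis wells were given 0.1% Triton X. LDH released into 50 µL of spent medium was measured as resorufin fluorescence with CytoTox-ONE on a Tecan Safire. Percent cytotoxicity was normalized to on-plate vehicle and total lysis controls and then averaged across duplicates.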

C=CCCCCCCCCC(=O)O [10-Undecenoic acid]
LDH release cytotoxicity (0.03162 µM): 0.758 ± 0.055%
LDH release cytotoxicity (0.1 µM): -0.653 ± 0.55%
LDH release cytotoxicity (0.3162278 µM): -0.789 ± 0.79%
LDH release cytotoxicity (1 µM): -0.96 ± 0.32%
LDH release cytotoxicity (3.16228 µM): -0.518 ± 0.55%
LDH release cytotoxicity (10 µM): -0.534 ± 0.037%
LDH release cytotoxicity (31.6228 µM): -1.07 ± 0.49%
LDH release cytotoxicity (100 µM): -0.0729 ± 0.15%

CCOC(=O)CC(CC(=O)OCC)(OC(C)=O)C(=O)OCC [Acetyltriethyl citrate]
LDH release cytotoxicity (0.03162 µM): -2.01 ± 1.3%
LDH release cytotoxicity (0.1 µM): -1.76 ± 0.41%
LDH release cytotoxicity (0.3162278 µM): -1.48 ± 0.41%
LDH release cytotoxicity (1 µM): -1.13 ± 1.1%
LDH release cytotoxicity (3.16228 µM): -0.615 ± 0.31%
LDH release cytotoxicity (10 µM): -1.09 ± 1.7%
LDH release cytotoxicity (31.6228 µM): 0.655 ± 0.037%
LDH release cytotoxicity (100 µM): 0.942 ± 0.48%

COP(=S)(OC)Oc1nc(Cl)c(Cl)cc1Cl [Chlorpyrifos-methyl]
LDH release cytotoxicity (0.0314647 µM): -1.653 ± 0.012%
LDH release cytotoxicity (0.0995 µM): -0.997 ± 0.086%
LDH release cytotoxicity (0.3146466 µM): -0.895 ± 1.2%
LDH release cytotoxicity (0.995 µM): -1.1 ± 0.81%
LDH release cytotoxicity (3.14647 µM): -1.09 ± 0.5%
LDH release cytotoxicity (9.95 µM): -0.401 ± 0.0061%
LDH release cytotoxicity (31.4647 µM): 0.323 ± 0.39%
LDH release cytotoxicity (99.5 µM): 3.84 ± 0.34%

CCOP(=S)(OCC)Oc1cc(C)nc(C(C)C)n1 [Diazinon]
LDH release cytotoxicity (0.03162 µM): -0.351 ± 0.5%
LDH release cytotoxicity (0.1 µM): -0.469 ± 0.17%
LDH release cytotoxicity (0.3162278 µM): -1.1 ± 0.52%
LDH release cytotoxicity (1 µM): -1.24 ± 0.3%
LDH release cytotoxicity (3.16228 µM): 0.347 ± 0.03%
LDH release cytotoxicity (10 µM): -0.4 ± 0.31%
LDH release cytotoxicity (31.6228 µM): -0.512 ± 0.59%
LDH release cytotoxicity (100 µM): 0.528 ± 0.71%

CSc1nc(NC(C)C)nc(NC(C)C)n1 [Prometryn]
LDH release cytotoxicity (0.031623 µM): 1.02 ± 1.4%
LDH release cytotoxicity (0.1 µM): -3.89 ± 0.19%
LDH release cytotoxicity (0.316228 µM): -3.27 ± 0.09%
LDH release cytotoxicity (1 µM): -2.93 ± 0.23%
LDH release cytotoxicity (3.16228 µM): -2.42 ± 0.25%
LDH release cytotoxicity (10 µM): -2.73 ± 0.41%
LDH release cytotoxicity (31.6228 µM): -3.26 ± 0.29%
LDH release cytotoxicity (100 µM): -1.44 ± 0.069%

O=[N+]([O-])c1ccc(O)c([N+](=O)[O-])c1 [2,4-Dinitrophenol]
LDH release cytotoxicity (0.03162 µM): -0.273 ± 0.077%
LDH release cytotoxicity (0.1 µM): -1.23 ± 0.39%
LDH release cytotoxicity (0.3162278 µM): -0.515 ± 0.069%
LDH release cytotoxicity (1 µM): -1 ± 0.71%
LDH release cytotoxicity (3.16228 µM): -0.876 ± 0.33%
LDH release cytotoxicity (10 µM): 0.105 ± 0.71%
LDH release cytotoxicity (31.6228 µM): 0.264 ± 0.47%
LDH release cytotoxicity (100 µM): 0.252 ± 0.21%

CN(C)c1ccc(C(=O)c2ccc(N(C)C)cc2)cc1 [Michler's ketone]
LDH release cytotoxicity (0.03162 µM): -2.16 ± 0.051%
LDH release cytotoxicity (0.1 µM): -1.79 ± 0.22%
LDH release cytotoxicity (0.3162278 µM): -1.41 ± 0.071%
LDH release cytotoxicity (1 µM): -2.73 ± 1%
LDH release cytotoxicity (3.16228 µM): 2.66 ± 0.82%
LDH release cytotoxicity (10 µM): 9.37 ± 0.13%
LDH release cytotoxicity (31.6228 µM): 7.06 ± 0.09%
LDH release cytotoxicity (100 µM): 12.9 ± 2%

Cc1cc(SC2C(=O)CC(CCc3ccc(N)cc3)(C(C)C)OC2=O)c(C(C)(C)C)cc1CO (configuration not stated) [CI-1029]
LDH release cytotoxicity (0.03162 µM): -0.634 ± 0.8%
LDH release cytotoxicity (0.1 µM): -3.84 ± 0.53%
LDH release cytotoxicity (0.3162278 µM): -3.74 ± 0.38%
LDH release cytotoxicity (1 µM): -3.966 ± 0.027%
LDH release cytotoxicity (3.16228 µM): -4.19 ± 0.59%
LDH release cytotoxicity (10 µM): -3.49 ± 0.12%
LDH release cytotoxicity (31.6228 µM): -3.96 ± 0.73%
LDH release cytotoxicity (100 µM): -2.25 ± 0.55%

CC(C)(C)c1cc(C(C)(C)C)c(O)c(C(C)(C)C)c1 [2,4,6-Tris(tert-butyl)phenol]
LDH release cytotoxicity (0.03162 µM): -0.34 ± 0.36%
LDH release cytotoxicity (0.1 µM): -0.143 ± 0.55%
LDH release cytotoxicity (0.3162278 µM): -0.16 ± 0.35%
LDH release cytotoxicity (1 µM): -0.404 ± 0.24%
LDH release cytotoxicity (3.16228 µM): -0.476 ± 0.26%
LDH release cytotoxicity (10 µM): 0.204 ± 1.6%
LDH release cytotoxicity (31.6228 µM): -0.0327 ± 1.8%
LDH release cytotoxicity (100 µM): 0.75 ± 0.75%

OCCO [Ethylene glycol]
LDH release cytotoxicity (0.0317809 µM): -0.738 ± 0.2%
LDH release cytotoxicity (0.1005 µM): -1.93 ± 0.58%
LDH release cytotoxicity (0.317809 µM): -2.04 ± 0.33%
LDH release cytotoxicity (1.005 µM): -2.45 ± 1.9%
LDH release cytotoxicity (3.17809 µM): -1.91 ± 0.87%
LDH release cytotoxicity (10.05 µM): -1.42 ± 0.5%
LDH release cytotoxicity (31.7809 µM): -1.26 ± 1%
LDH release cytotoxicity (100.5 µM): 0.328 ± 0.82%

CC1=CC(=O)CC(C)(C)C1 [Isophorone]
LDH release cytotoxicity (0.03162 µM): -0.205 ± 0.22%
LDH release cytotoxicity (0.1 µM): 0.529 ± 2.1%
LDH release cytotoxicity (0.3162278 µM): -0.132 ± 0.62%
LDH release cytotoxicity (1 µM): -0.235 ± 0.13%
LDH release cytotoxicity (3.16228 µM): 0.145 ± 0.46%
LDH release cytotoxicity (10 µM): 1.04 ± 0.22%
LDH release cytotoxicity (31.6228 µM): 0.514 ± 0.36%
LDH release cytotoxicity (100 µM): 1.74%

CC(C)(C)c1ccc(O)c(C(C)(C)C)c1 [2,4-Di-tert-butylphenol]
LDH release cytotoxicity (0.03162 µM): -2.05 ± 0.42%
LDH release cytotoxicity (0.1 µM): -1.71 ± 0.24%
LDH release cytotoxicity (0.3162278 µM): -1.9 ± 1.1%
LDH release cytotoxicity (1 µM): -2.07 ± 0.9%
LDH release cytotoxicity (3.16228 µM): -1.83 ± 0.043%
LDH release cytotoxicity (10 µM): -1.53 ± 0.18%
LDH release cytotoxicity (31.6228 µM): -0.783 ± 0.87%
LDH release cytotoxicity (100 µM): 0.8 ± 0.4%

CNC(=O)C=C(C)OP(=O)(OC)OC [Monocrotophos]
LDH release cytotoxicity (0.03162 µM): -1.04 ± 1%
LDH release cytotoxicity (0.1 µM): -1.87 ± 0.34%
LDH release cytotoxicity (0.3162278 µM): -1.93 ± 1.1%
LDH release cytotoxicity (1 µM): -1.17 ± 1.1%
LDH release cytotoxicity (3.16228 µM): -1.61 ± 0.6%
LDH release cytotoxicity (10 µM): -1.39 ± 0.81%
LDH release cytotoxicity (31.6228 µM): -0.305 ± 0.93%
LDH release cytotoxicity (100 µM): -0.571 ± 0.54%

CCN(CC)C(=O)C(C)Oc1cccc2ccccc12 (configuration not stated) [Napropamide]
LDH release cytotoxicity (0.03162 µM): -0.242 ± 0.62%
LDH release cytotoxicity (0.1 µM): -0.853 ± 0.36%
LDH release cytotoxicity (0.3162278 µM): -1.37 ± 0.22%
LDH release cytotoxicity (1 µM): -0.226 ± 0.36%
LDH release cytotoxicity (3.16228 µM): -1.59 ± 1.4%
LDH release cytotoxicity (10 µM): -0.144 ± 0.53%
LDH release cytotoxicity (31.6228 µM): 0.0468 ± 0.54%
LDH release cytotoxicity (100 µM): 1.05 ± 1.2%

Cc1cc(F)ccc1-c1cc(N2CCC(O)C2CO)ncc1N(C)C(=O)C(C)(C)c1cc(C(F)(F)F)cc(C(F)(F)F)c1 (configuration not stated)
LDH release cytotoxicity (0.02577 µM): -0.371 ± 0.69%
LDH release cytotoxicity (0.0815 µM): -1.04 ± 0.056%
LDH release cytotoxicity (0.2577256 µM): -1.11 ± 0.12%
LDH release cytotoxicity (0.815 µM): -0.898 ± 0.74%
LDH release cytotoxicity (2.57726 µM): -1.2 ± 0.34%
LDH release cytotoxicity (8.15 µM): -1.08 ± 0.097%
LDH release cytotoxicity (25.7726 µM): 12.91 ± 0.041%
LDH release cytotoxicity (81.5 µM): 86.4 ± 2.3%

CN(C)CCOC(c1ccccc1)c1ccccc1 [Diphenhydramine hydrochloride]
LDH release cytotoxicity (0.03162 µM): -0.0757 ± 0.11%
LDH release cytotoxicity (0.1 µM): -1.04 ± 0.17%
LDH release cytotoxicity (0.3162278 µM): -0.977 ± 0.34%
LDH release cytotoxicity (1 µM): -1.8 ± 1.1%
LDH release cytotoxicity (3.16228 µM): -1.62 ± 0.031%
LDH release cytotoxicity (10 µM): -0.793 ± 0.26%
LDH release cytotoxicity (31.6228 µM): -0.772 ± 0.23%
LDH release cytotoxicity (100 µM): 1.1 ± 0.12%

c1ccc2c(c1)-c1cccc3c1c-2cc1ccccc13 [Benzo(b)fluoranthene]
LDH release cytotoxicity (0.03162 µM): -1.73 ± 0.79%
LDH release cytotoxicity (0.1 µM): -2.8 ± 0.051%
LDH release cytotoxicity (0.3162278 µM): -1.72 ± 0.55%
LDH release cytotoxicity (1 µM): -2.85 ± 1%
LDH release cytotoxicity (3.16228 µM): -1.02 ± 0.32%
LDH release cytotoxicity (10 µM): 1.06 ± 1.1%
LDH release cytotoxicity (31.6228 µM): 5.33 ± 2.5%
LDH release cytotoxicity (100 µM): 5.52 ± 2.2%

COC(=O)CCC(=O)OC [Dimethyl succinate]
LDH release cytotoxicity (0.03162 µM): -1.91 ± 0.15%
LDH release cytotoxicity (0.1 µM): -0.897 ± 0.57%
LDH release cytotoxicity (0.3162278 µM): -1.76 ± 0.078%
LDH release cytotoxicity (1 µM): -2.16 ± 0.17%
LDH release cytotoxicity (3.16228 µM): -1.84 ± 0.28%
LDH release cytotoxicity (10 µM): -1.56 ± 0.26%
LDH release cytotoxicity (31.6228 µM): -1.39 ± 0.24%
LDH release cytotoxicity (100 µM): 0.319 ± 0.33%

O=C1CCC(C2CCCCC2)CC1 [4-Cyclohexylcyclohexanone]
LDH release cytotoxicity (0.03162 µM): -0.737 ± 0.094%
LDH release cytotoxicity (0.1 µM): -0.435 ± 0.51%
LDH release cytotoxicity (0.3162278 µM): -0.827 ± 0.45%
LDH release cytotoxicity (1 µM): -0.822 ± 0.7%
LDH release cytotoxicity (3.16228 µM): -0.588 ± 1.1%
LDH release cytotoxicity (10 µM): 0.479 ± 0.26%
LDH release cytotoxicity (31.6228 µM): 0.205 ± 0.41%
LDH release cytotoxicity (100 µM): 0.739 ± 1.3%
